Experimental data from ChEMBL document CHEMBL3769371, “1-[(2E)-3-Phenylprop-2-enoyl]-1H-benzimidazoles as anticancer agents: synthesis, crystal structure analysis and binding studies of the most potent anticancer molecule with serum albumin” (Medchemcomm, 2015).
The source made the active and inactive calls. No cut-off for these calls is given here.

Assays:
CCRF-CEM = assay: Antiproliferative activity against human CCRF-CEM cells at 10'5 M; format: functional
RPMI-8226 = assay: (§1) Antiproliferative activity against human RPMI8226 cells at 10'5 M; format: functional
SR = assay: Antiproliferative activity against human SR cells at 10'5 M; format: functional
MCF7 = assay: Antiproliferative activity against human MCF7 cells at 10'5 M; format: functional
HCT-116 = assay: (§2) Antiproliferative activity against human HCT116 cells at 10'5 M; format: functional
K562 = assay: Antiproliferative activity against human K562 cells at 10'5 M; format: functional
MOLT-4 = assay: Antiproliferative activity against human MOLT4 cells at 10'5 M; format: functional
NCI-H460 = assay: Antiproliferative activity against human NCI-H460 cells at 10'5 M; format: functional
Malme-3M = assay: Antiproliferative activity against human MALME-3M cells at 10'5 M; format: functional
NCI/ADR-RES = assay: Antiproliferative activity against human NCI-ADR-RES cells at 10'5 M; format: functional
SK-OV-3 = assay: Antiproliferative activity against human SKOV3 cells at 10'5 M; format: functional
TK-10 = assay: Antiproliferative activity against human TK10 cells at 10'5 M; format: functional
PC-3 = assay: Antiproliferative activity against human PC3 cells at 10'5 M; format: functional
HCC 2998 = assay: Antiproliferative activity against human HCC2998 cells at 10'5 M; format: functional
SNB-75 = assay: Antiproliferative activity against human SNB75 cells at 10'5 M; format: functional
IGROV-1 = assay: Antiproliferative activity against human IGROV1 cells at 10'5 M; format: functional
OVCAR-4 = assay: Antiproliferative activity against human OVCAR4 cells at 10'5 M; format: functional
DU-145 = assay: Antiproliferative activity against human DU145 cells at 10'5 M; format: functional
Hs-578T = assay: Antiproliferative activity against human Hs 578T cells at 10'5 M; format: functional
[1] = as §1; format: functional, RPMI-8226
[2] = as §2; format: functional, HCT-116

| SMILES | Activity (CCRF-CEM) | Activity (RPMI-8226) | Activity (SR) | Activity (MCF7) | Activity (HCT-116) | Activity (K562) | Activity (MOLT-4) | Activity (NCI-H460) | Activity (Malme-3M) | Activity (NCI/ADR-RES) | Activity (SK-OV-3) | Activity (TK-10) | Activity (PC-3) | Activity (HCC 2998) | Activity (SNB-75) | Activity (IGROV-1) | Activity (OVCAR-4) | Activity (DU-145) | Activity (Hs-578T) | further results |
| --- | --- | --- | --- | --- | --- | --- | --- | --- | --- | --- | --- | --- | --- | --- | --- | --- | --- | --- | --- | --- |
| O=C(/C=C/c1ccccc1)n1c(-c2ccc(O)cc2)nc2ccccc21 | inactive | inactive | inactive | inactive | inactive | inactive | inactive | inactive | inactive | inactive | inactive | inactive | inactive | inactive | inactive | inactive | inactive | inactive | inactive | – |
| Cc1nc2ccccc2n1C(=O)/C=C/c1ccccc1 | inactive | inactive | inactive | inactive | inactive | inactive | inactive | inactive | inactive | inactive | inactive | inactive | inactive | inactive | inactive | inactive | inactive | inactive | inactive | – |
| Cc1cc2nc[nH]c2cc1C [DIMEDAZOL] | – | – | – | – | – | – | – | – | – | – | – | – | – | – | – | – | – | – | – | growth inhibition (GI) (CCRF-CEM): 64.66%; growth inhibition (GI) [1]: 63.61%; growth inhibition (GI) (SR): 64.66%; growth inhibition (GI) (MCF7): 69.59% |
| Cc1cc2ncn(C(=O)/C=C/c3ccccc3)c2cc1C | inactive | inactive | inactive | inactive | inactive | inactive | inactive | inactive | inactive | inactive | inactive | inactive | inactive | inactive | inactive | inactive | inactive | inactive | inactive | – |
| Cc1ccc2nc[nH]c2c1 | – | – | – | – | – | – | – | – | – | – | – | – | – | – | – | – | – | – | – | growth inhibition (GI) (CCRF-CEM): 60.81%; growth inhibition (GI) [1]: 88.17%; growth inhibition (GI) (SR): 84.7%; growth inhibition (GI) (MCF7): 73.43%; growth inhibition (GI) [2]: 64.84% |
| COc1ccc(-c2nc3ccccc3n2C(=O)/C=C/c2ccccc2)cc1 | inactive | inactive | inactive | inactive | inactive | inactive | inactive | inactive | inactive | inactive | inactive | inactive | inactive | inactive | inactive | inactive | inactive | inactive | inactive | – |
| Cc1ccc2ncn(C(=O)/C=C/c3ccccc3)c2c1 | inactive | inactive | inactive | inactive | inactive | inactive | inactive | inactive | inactive | inactive | inactive | inactive | inactive | inactive | inactive | inactive | inactive | inactive | inactive | – |
| O=C(/C=C/c1ccccc1)n1c(-c2ccccc2O)nc2ccccc21 | inactive | inactive | inactive | inactive | inactive | inactive | inactive | inactive | inactive | inactive | inactive | inactive | inactive | inactive | inactive | inactive | inactive | inactive | inactive | – |
| O=C(/C=C/c1ccccc1)n1c(-c2ccccc2)nc2ccccc21 | inactive | inactive | inactive | inactive | inactive | inactive | inactive | inactive | inactive | inactive | inactive | inactive | inactive | inactive | inactive | inactive | inactive | inactive | inactive | – |
